For the assay, the target named is ROCK2 (human) (UniProt O75116). In words: Inhibition of ROCK2 Kinase Activity.
Sequence of ROCK2 (human) (O75116 whole entry, looked up): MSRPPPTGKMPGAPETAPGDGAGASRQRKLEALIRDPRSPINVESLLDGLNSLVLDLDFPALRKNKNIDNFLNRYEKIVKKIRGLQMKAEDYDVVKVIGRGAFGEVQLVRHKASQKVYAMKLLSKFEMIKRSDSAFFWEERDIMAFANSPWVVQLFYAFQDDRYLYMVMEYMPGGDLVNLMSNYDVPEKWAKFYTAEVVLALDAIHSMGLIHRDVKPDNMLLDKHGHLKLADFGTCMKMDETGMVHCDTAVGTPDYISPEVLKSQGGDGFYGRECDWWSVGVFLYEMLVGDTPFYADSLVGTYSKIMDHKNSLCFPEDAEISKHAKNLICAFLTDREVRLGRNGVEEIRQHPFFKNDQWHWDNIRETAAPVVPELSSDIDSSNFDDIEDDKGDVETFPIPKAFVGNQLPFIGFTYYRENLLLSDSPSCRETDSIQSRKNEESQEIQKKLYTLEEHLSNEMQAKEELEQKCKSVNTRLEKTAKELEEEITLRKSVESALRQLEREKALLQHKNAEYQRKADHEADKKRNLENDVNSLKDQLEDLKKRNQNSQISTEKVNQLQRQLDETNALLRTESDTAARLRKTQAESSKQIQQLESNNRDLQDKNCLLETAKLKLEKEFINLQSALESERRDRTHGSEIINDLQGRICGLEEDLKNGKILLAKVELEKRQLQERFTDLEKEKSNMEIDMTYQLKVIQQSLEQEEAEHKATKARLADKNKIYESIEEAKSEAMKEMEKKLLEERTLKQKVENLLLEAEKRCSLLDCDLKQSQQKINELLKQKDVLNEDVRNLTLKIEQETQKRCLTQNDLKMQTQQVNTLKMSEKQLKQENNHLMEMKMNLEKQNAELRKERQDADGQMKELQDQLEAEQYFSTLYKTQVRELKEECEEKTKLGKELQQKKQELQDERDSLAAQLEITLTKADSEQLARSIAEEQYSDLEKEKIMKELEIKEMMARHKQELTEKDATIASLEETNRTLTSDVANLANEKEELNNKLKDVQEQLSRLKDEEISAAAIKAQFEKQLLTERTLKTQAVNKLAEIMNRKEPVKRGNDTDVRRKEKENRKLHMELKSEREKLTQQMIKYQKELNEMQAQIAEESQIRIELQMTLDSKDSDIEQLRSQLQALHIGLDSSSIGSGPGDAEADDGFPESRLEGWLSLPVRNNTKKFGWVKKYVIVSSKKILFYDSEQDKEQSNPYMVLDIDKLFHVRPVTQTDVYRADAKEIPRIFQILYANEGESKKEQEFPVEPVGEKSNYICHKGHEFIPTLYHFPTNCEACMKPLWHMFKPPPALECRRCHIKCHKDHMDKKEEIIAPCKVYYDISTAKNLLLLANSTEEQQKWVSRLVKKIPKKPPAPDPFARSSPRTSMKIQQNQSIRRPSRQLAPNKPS
Regarding `CN(C)S(=O)(=O)c1ccc2c(c1)CC(c1nc3ccc(-c4ccnc(N)n4)cc3[nH]1)CO2` (stereo unspecified), the IC50 (usually the point on the concentration scale where inhibition reaches its midpoint) was found to be 40 nM.

Turning to `Nc1nccc(-c2ccc3nc(C4COc5ccc(Br)cc5C4)[nH]c3c2)n1` (stereo unspecified), the IC50 was found to be 10 nM.

Regarding `CC(=O)c1ccc2c(c1)CC(c1nc3ccc(-c4ccnc(N)n4)cc3[nH]1)CO2` (stereo unspecified), the IC50 was 2.7 nM.

In the case of `Nc1nccc(-c2ccc3nc(C4COc5ccc(C(=O)NC6CC6)cc5C4)[nH]c3c2)n1` (stereo unspecified), the IC50 turned out to be 1.2 nM.

With `Nc1nccc(-c2ccc3nc(C4COc5ccc(C(=O)NCc6ccccc6)cc5C4)[nH]c3c2)n1` (stereo unspecified), the IC50 was below 1 nM.

`Nc1nccc(-c2ccc3nc(C4COc5ccc(F)cc5C4)[nH]c3c2)n1` (stereo unspecified) displayed a half-inhibitory concentration (IC50) of 4.7 nM.

Turning to `Nc1nccc(-c2ccc3nc(C4COc5ccc(C(=O)NCCN6CCOCC6)cc5C4)[nH]c3c2)n1` (stereo unspecified), the IC50 was determined as 1.2 nM.

The molecule `CCCOc1ccc2c(c1)CC(c1nc3ccc(-c4ccnc(N)n4)cc3[nH]1)CO2` (stereo unspecified) gave an IC50 of 316 nM. Against the preceding molecule, the IC50 is about 260-fold higher.

`N#Cc1ccc2c(c1)CC(c1nc3ccc(-c4ccnc(N)n4)cc3[nH]1)CO2` (stereo unspecified) gave a 50% inhibitory concentration (IC50) of 43 nM. This IC50 lies about 7.3-fold lower than the previous one.

`Nc1nccc(-c2ccc3nc(C4COc5ccc(CC(=O)NC6CC6)cc5C4)[nH]c3c2)n1` (stereo unspecified) yielded an IC50 of 0.8 nM. Against the preceding molecule, the IC50 is about 54-fold lower.

With `NC(=O)c1ccc2c(c1)CC(c1nc3ccc(-c4ccnc(N)n4)cc3[nH]1)CO2` (stereo unspecified), the IC50 was determined as 4 nM.
